{"source": "patent US9856247B2", "about": "“4-methyl-dihydropyrimidines for the treatment and prophylaxis of Hepatitis B virus infection” (Hoffmann-La Roche Inc., priority 2012, dated 2018)", "key": {"[1]": {"assay": "Stability in mouse liver homogenate", "format": "in vitro ADME, CD-1 mouse", "method": "In this experiment, fresh mouse liver sample was homogenized by adding saline (1 g liver tissue: 5 mL saline) immediately after collection. After centrifuging for 10 minutes at 14000 rpm, the pooled supernatant was used to prepare liver homogenate solutions. […] Then, they were incubated at rt. After incubation time of 0, 15 and 30 minutes, 180 μl aliquots of MeOH was added into 20 μl of homogenate, respectively. All these samples were vortex mixed for 5 minutes at 1500 rpm and centrifuged for 10 minutes at 14000 rpm. The supernatants were transferred into a 96-well plate for LC-MS/MS analysis.\nThe Chromatographic separation was achieved on a Chromolith Performance RP-18 endcapped (3×100 mm) at room temperature.\nData processing was performed with Agilent MassHunter Workstation Data Acquisition B.04.00 and Agilent MassHunter Workstation Qualitative Analysis B.04.00."}, "[2]": {"assay": "Incubation with human liver microsomes (metabolite formation)", "format": "in vitro ADME", "conditions": "5 μM, 1 mM NADPH, 60 minutes", "method": "(§1) In this experiment, pooled liver microsomes (20 mg/ml) from human, male Wister rat and male CD-1 mouse were obtained from BD Bioscience (Franklin Lakes, N.J. USA). Incubation reaction mixtures contained a final concentration of 0.1M sodium phosphate buffer (pH 7.4), 0.5 mg/ml microsomal protein, 5 μM of the tested compounds and 1 mM NADPH in a total volume of 400 μl. The incubations were done for 60 minutes and 300 μl of the mixtures was transferred to 150 μl of ice cold methanol to terminate reactions. After vortexes for 3 minutes and centrifuged at 4000 rpm at 4° C. for 10 minutes, the clear supernatant was used directly for analysis. The samples were analyzed by Applied Biosystems API 3200 Q TRAP LC/MS/MS system using electrospray ionization mode."}, "[3]": {"assay": "Incubation with rat liver microsomes (metabolite formation)", "format": "in vitro ADME, male Wister rat", "conditions": "5 μM, 1 mM NADPH, 60 minutes", "method": "as §1"}, "[4]": {"assay": "Incubation with mouse liver microsomes (metabolite formation)", "format": "in vitro ADME, male CD-1 mouse", "conditions": "5 μM, 1 mM NADPH, 60 minutes", "method": "as §1"}, "HBV": {"system": "HBV", "conditions": "HBV infected transgenic mouse or humanized mouse models; cited from earlier work"}, "HBV DNA": {"system": "HBV DNA", "assay": "Anti-HBV activity in HepDE19 cells (HBV DNA dot-blot)", "format": "cell-based, Hepatitis B virus (HBV)", "conditions": "Hepatitis B virus, 120 h; HepDE19 cells, five days after compound treatment, concentration that inhibited HBV DNA by 50%; read-out: HepDe19 EC50"}, "in vitro": {"assay": "in vitro", "conditions": "human"}}, "data": [{"smiles": "COC(=O)C1=C(C)NC(c2ncc(F)cc2F)=N[C@H]1c1ccc(F)cc1Cl", "note": "[Bay 41-4109]", "values": [{"measurement": "Percentage to 0 min", "setting": "[1]; 100 ng/mL, incubation time 0 min", "result": 100, "unit": "%"}, {"measurement": "Percentage to 0 min", "setting": "[1]; 100 ng/mL, incubation time 15 min, rt", "result": 1.84, "unit": "%"}, {"measurement": "Percentage to 0 min", "setting": "[1]; 300 ng/mL, incubation time 0 min", "result": 100, "unit": "%"}, {"measurement": "Percentage to 0 min", "setting": "[1]; 300 ng/mL, incubation time 30 min, rt", "result": 0, "unit": "%"}, {"measurement": "Percentage to 0 min", "setting": "[1]; 1000 ng/mL, incubation time 0 min", "result": 100, "unit": "%"}, {"measurement": "Percentage to 0 min", "setting": "[1]; 1000 ng/mL, incubation time 15 min, rt", "result": 1.90, "unit": "%"}, {"measurement": "Percentage to 0 min", "setting": "[1]; 1000 ng/mL, incubation time 30 min, rt", "result": 0.16, "unit": "%"}, {"measurement": "compound detected after incubation", "setting": "[1]; 15 minutes room temperature incubation, at three different concentration levels", "result": "About 2%"}, {"measurement": "stability in liver homogenate treated with saline", "setting": "[1]; conclusion in words", "result": "not stable"}, {"measurement": "conversion to pyrimidine product XLVI", "setting": "[2]", "result": "converted to XLVI"}, {"measurement": "conversion to pyrimidine product XLVI", "setting": "[3]", "result": "oxidized to pyrimidine product XLVI"}, {"measurement": "conversion to pyrimidine product XLVI", "setting": "[4]", "result": "oxidized to pyrimidine product XLVI"}, {"measurement": "in vivo efficacy (HBV DNA reduction)", "setting": "HBV", "result": "demonstrated in vivo efficacy with HBV DNA reduction"}]}, {"smiles": "COC(=O)C1=C(CN2CCOC[C@H]2C(=O)O)NC(c2nccs2)=NC1(C)c1ccc(F)c(F)c1", "note": "(stereo partly drawn) [Example 16, 4-[6-(3,4-Difluoro-phenyl)-5-methoxycarbonyl-6-methyl-2-thiazol-2-yl-3,6-dihydro-pyrimidin-4-ylmethyl]-morpholine-3-carboxylic acid]", "values": [{"measurement": "EC50", "setting": "HBV DNA", "result": 0.25, "unit": "µM"}, {"measurement": "CC50 at 5 days", "setting": "in vitro", "result": "> 100", "unit": "µM"}]}, {"smiles": "COC(=O)C1=C(CN2CC(F)(F)C[C@H]2C(=O)O)NC(c2ccon2)=NC1(C)c1ccc(F)cc1", "note": "(stereo partly drawn) [Example 35, 6-((S)-2-carboxy-4,4-difluoro-pyrrolidin-1-ylmethyl)-4-(4-fluoro-phenyl)-2-isoxazol-3-yl-4-methyl-1,4-dihydro-pyrimidine-5-carboxylic acid methyl ester]", "values": [{"measurement": "EC50", "setting": "HBV DNA", "result": 15, "unit": "µM"}, {"measurement": "CC50 at 5 days", "setting": "in vitro", "result": "≥ 100", "unit": "µM"}]}, {"smiles": "COC(=O)C1=C(CN2CC(F)(F)C[C@H]2C(=O)O)NC(c2nc(C)cs2)=N[C@@]1(C)c1ccc(F)cc1", "note": "[Example 32, (S)-6-((S)-2-carboxy-4,4-difluoro-pyrrolidin-1-ylmethyl)-4-(4-fluoro-phenyl)-4-methyl-2-(4-methyl-thiazol-2-yl)-1,4-dihydro-pyrimidine-5-carboxylic acid methyl ester]", "values": [{"measurement": "EC50", "setting": "HBV DNA", "result": 0.13, "unit": "µM"}, {"measurement": "CC50 at 5 days", "setting": "in vitro", "result": 75, "unit": "µM"}]}, {"smiles": "COC(=O)C1=C(CN2CCOC[C@H]2C(=O)O)NC(c2ccc(F)cn2)=NC1(C)c1ccc(F)cc1", "note": "(stereo partly drawn) [Example 10, 4-[6-(4-Fluoro-phenyl)-2-(5-fluoro-pyridin-2-yl)-5-methoxycarbonyl-6-methyl-3,6-dihydro-pyrimidin-4-ylmethyl]-morpholine-(S)-3-carboxylic acid]", "values": [{"measurement": "EC50", "setting": "HBV DNA", "result": 7.04, "unit": "µM"}, {"measurement": "CC50 at 5 days", "setting": "in vitro", "result": "> 100", "unit": "µM"}]}]}
